According to patent US8754242B2, “Herbicides” (Syngenta Crop Protection LLC, priority 2007, dated 2014):

Assays:
Format in all cases: in vivo
Setaria faberi (SETFA) [1] = assay: Test Example 1 post-emergence herbicidal activity; conditions: rate 125 g/ha, evaluated 15 days later; for pest or weed control at 125 g/ha: 360 h, read-out: Post-emergence activity SETFA (100=total damage to plant; 0=no damage to plant)
Procedure, shortened: (§1)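 Pots sown in standard soil were sprayed 1 day (pre-emergence) or 10 days (post-emergence) after sowing with an aqueous spray from an acetone/Emulsogen EL/N-methylpyrrolidone-based formulation. Visual damage was scored 20 days (pre) or 15 days (post) later in the greenhouse, 0 = none to 100 = total.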

Avena fatua (AVEFA) [2] = assay: Test Example 1 post-emergence herbicidal activity; conditions: rate 125 g/ha, evaluated 15 days later; for pest or weed control at 125 g/ha: 360 h, read-out: Post-emergence activity AVEFA (100=total damage to plant; 0=no damage to plant)
Procedure, shortened: as §1

[3] = tested on: Echinochloa crus-galli (ECHCG); assay: Test Example 1 post-emergence herbicidal activity; conditions: rate 125 g/ha, evaluated 15 days later; for pest or weed control at 125 g/ha: 360 h, read-out: Post-emergence activity ECHCG (100=total damage to plant; 0=no damage to plant)
Procedure, shortened: as §1

[4] = tested on: Digitaria sanguinalis (DIGSA); assay: Test Example 1 post-emergence herbicidal activity; conditions: rate 125 g/ha, evaluated 15 days later; for pest or weed control at 125 g/ha: 360 h, read-out: Post-emergence activity DIGSA (100=total damage to plant; 0=no damage to plant)
Procedure, shortened: as §1

[5] = tested on: Alopecurus myosuroides (ALOMY); assay: Test Example 1 post-emergence herbicidal activity; conditions: rate 125 g/ha, evaluated 15 days later; for pest or weed control at 125 g/ha: 360 h, read-out: Post-emergence activity ALOMY (100=total damage to plant; 0=no damage to plant)
Procedure, shortened: as §1

Lolium perenne (LOLPE) [6] = assay: Test Example 1 post-emergence herbicidal activity; conditions: rate 125 g/ha, evaluated 15 days later; for pest or weed control at 125 g/ha: 360 h, read-out: Post-emergence activity LOLPE (100=total damage to plant; 0=no damage to plant)
Procedure, shortened: as §1

Setaria faberi (SETFA) [7] = assay: Test Example 1 pre-emergence herbicidal activity; conditions: rate 250 g/ha, evaluated 20 days later; for pest or weed control at 250 g/ha: Setaria faberi, 480 h, read-out: Pre-emergence activity SETFA (100=total damage to plant; 0=no damage to plant)
Procedure, shortened: as §1

Avena fatua (AVEFA) [8] = assay: Test Example 1 pre-emergence herbicidal activity; conditions: rate 250 g/ha, evaluated 20 days later; for pest or weed control at 250 g/ha: Avena fatua, 480 h, read-out: Pre-emergence activity AVEFA (100=total damage to plant; 0=no damage to plant)
Procedure, shortened: as §1

[9] = tested on: Echinochloa crus-galli (ECHCG); assay: Test Example 1 pre-emergence herbicidal activity; conditions: rate 250 g/ha, evaluated 20 days later; for pest or weed control at 250 g/ha: Echinochloa crus-galli, 480 h, read-out: Pre-emergence activity ECHCG (100=total damage to plant; 0=no damage to plant)
Procedure, shortened: as §1

[10] = tested on: Digitaria sanguinalis (DIGSA); assay: Test Example 1 pre-emergence herbicidal activity; conditions: rate 250 g/ha, evaluated 20 days later; for pest or weed control at 250 g/ha: Digitaria sanguinalis, 480 h, read-out: Pre-emergence activity DIGSA (100=total damage to plant; 0=no damage to plant)
Procedure, shortened: as §1

[11] = tested on: Alopecurus myosuroides (ALOMY); assay: Test Example 1 pre-emergence herbicidal activity; conditions: rate 250 g/ha, evaluated 20 days later; for pest or weed control at 250 g/ha: Alopecurus myosuroides, 480 h, read-out: Pre-emergence activity ALOMY (100=total damage to plant; 0=no damage to plant)
Procedure, shortened: as §1

Lolium perenne (LOLPE) [12] = assay: Test Example 1 pre-emergence herbicidal activity; conditions: rate 250 g/ha, evaluated 20 days later; for pest or weed control at 250 g/ha: Lolium perenne, 480 h, read-out: Pre-emergence activity LOLPE (100=total damage to plant; 0=no damage to plant)
Procedure, shortened: as §1

Row | SMILES | pest or weed control at 125 g/ha (Setaria faberi (SETFA) [1]) | pest or weed control at 125 g/ha (Avena fatua (AVEFA) [2]) | pest or weed control at 125 g/ha [3] | pest or weed control at 125 g/ha [4] | pest or weed control at 125 g/ha [5] | pest or weed control at 125 g/ha (Lolium perenne (LOLPE) [6]) | pest or weed control at 250 g/ha (Setaria faberi (SETFA) [7]) | pest or weed control at 250 g/ha (Avena fatua (AVEFA) [8]) | pest or weed control at 250 g/ha [9] | pest or weed control at 250 g/ha [10] | pest or weed control at 250 g/ha [11] | pest or weed control at 250 g/ha (Lolium perenne (LOLPE) [12]) | also measured
1 | C#CC1=C[C@@H]2O[C@H]1[C@H]1C(O)=C(c3c(CC)cc(C)cc3CC)C(=O)[C@H]12 [Example T12] | 70% | 50% | 70% | 70% | 70% | 10% | 40% | 10% | 0% | 40% | 10% | 40% | 
2 | CCc1cc(C)cc(CC)c1C1=C(O)[C@H]2[C@@H](C1=O)[C@@H]1CC[C@@]2(CO)O1 [Example T14] | 100% | 80% | 100% | 90% | 80% | 80% | 100% | 90% | 90% | 70% | 90% | 100% | 
3 | CCC1=NOC2C1[C@@H]1O[C@H]2[C@H]2C(O)=C(c3c(CC)cc(C)cc3CC)C(=O)[C@H]21 (stereo partly drawn) [Example T15] | 50% | 40% | 80% | 80% | 50% | 40% | 60% | 20% | 80% | 30% | 40% | 40% | 
4 | CCc1cc(C)cc(CC)c1C1=C(O)[C@H]2[C@@H](C1=O)[C@@H]1CC[C@@]2(COC)O1 [Example T17] | 100% | 100% | 100% | 100% | 100% | 90% | 100% | 90% | 100% | 100% | 100% | 100% | 
5 | CCOC[C@]12CC[C@H](O1)[C@@H]1C(=O)C(c3c(CC)cc(C)cc3CC)=C(O)[C@@H]12 [Example T18] | 100% | 100% | 100% | 100% | 100% | 80% | 100% | 100% | 100% | 100% | 100% | 100% | 
6 | CCOCOC[C@]12CC[C@H](O1)[C@@H]1C(=O)C(c3c(CC)cc(C)cc3CC)=C(O)[C@@H]12 [Example T19] | 100% | 100% | 100% | 90% | 100% | 90% | 100% | 90% | 100% | 90% | 100% | 100% | 
7 | CCCNC(=O)OC[C@]12CC[C@H](O1)[C@@H]1C(=O)C(c3c(CC)cc(C)cc3CC)=C(O)[C@@H]12 [Example T21] | 60% | 70% | 100% | 30% | 90% | 70% | 70% | 30% | 80% | 10% | 90% | 80% | 
8 | CCc1cc(C)cc(CC)c1C1=C(O)[C@H]2[C@@H](C1=O)[C@@H]1CC[C@@]2(COCC#N)O1 [Example T27] | 100% | 90% | 100% | 100% | 100% | 80% | 100% | 70% | 100% | 90% | 70% | 70% | 
9 | Cc1cc(C)c(C2=C(O)[C@H]3[C@@H](C2=O)[C@]2(C)C=C[C@@]3(C)O2)c(C)c1 [Example T34] | 80% | 30% | 80% | 80% | 40% | 30% | 80% | 30% | 40% | 60% | 70% | 60% | 
10 | CC[C@]12C=C[C@H](O1)[C@@H]1C(=O)C(c3c(C)cc(C)cc3C)=C(O)[C@@H]12 [Example T40] | 70% | 30% | 70% | 70% | 40% | 30% | 40% | 60% | 40% | 60% | 50% | 60% | 
11 | Cc1cc(C)c(C2=C(O)[C@@H]3[C@@H]4O[C@@H]([C@H](Br)[C@H]4Br)[C@@H]3C2=O)c(C)c1 [Example T46] | 60% | 0% | 80% | 0% | 0% | 0% | 30% | 0% | 70% | 20% | 10% | 30% | 
12 | COC[C@H]1C[C@@H]2O[C@H]1[C@H]1C(O)=C(c3c(C)cc(C)cc3C)C(=O)[C@H]12 [Example T47] | 70% | 90% | 100% | 60% | 100% | 90% | 80% | 80% | 100% | 70% | 100% | 100% | 
13 | Cc1cc(C)c(C2=C(O)[C@H]3[C@@H](C2=O)[C@@H]2CC[C@@]3(C)O2)c(C)c1 [Example T48] |  |  |  |  |  |  |  |  |  |  |  |  | Post-emergence activity SETFA (100=total damage to plant; 0=no damage to plant) (Setaria faberi (SETFA) [1]): 90; Post-emergence activity AVEFA (100=total damage to plant; 0=no damage to plant) (Avena fatua (AVEFA) [2]): 70; Post-emergence activity ECHCG (100=total damage to plant; 0=no damage to plant) [3]: 100; Post-emergence activity DIGSA (100=total damage to plant; 0=no damage to plant) [4]: 100; Post-emergence activity ALOMY (100=total damage to plant; 0=no damage to plant) [5]: 80; Post-emergence activity LOLPE (100=total damage to plant; 0=no damage to plant) (Lolium perenne (LOLPE) [6]): 70; Pre-emergence activity SETFA (100=total damage to plant; 0=no damage to plant) (Setaria faberi (SETFA) [7]): 100; Pre-emergence activity AVEFA (100=total damage to plant; 0=no damage to plant) (Avena fatua (AVEFA) [8]): 80; Pre-emergence activity ECHCG (100=total damage to plant; 0=no damage to plant) [9]: 100; Pre-emergence activity DIGSA (100=total damage to plant; 0=no damage to plant) [10]: 100; Pre-emergence activity ALOMY (100=total damage to plant; 0=no damage to plant) [11]: 100; Pre-emergence activity LOLPE (100=total damage to plant; 0=no damage to plant) (Lolium perenne (LOLPE) [12]): 100
